Results from patent publication US20190298846A1, “CELL TARGETING CONJUGATES” (LinXis B.V., priority 2016, published 2019).
Square brackets hold non-standard residues; d marks the D form. Peptide text beside a SMILES is read from it. * marks the point of attachment. Dolaproine = CO[C@@H]([C@@H]1CCCN1)[C@@H](C)C(=O)O; Dil = CC[C@H](C)[C@H](NC)[C@@H](CC(=O)O)OC; X1 = O=C(CCCCCN1C(=O)C=CC1=O)NCCOCCOCCN*; NMe2Val = CC(C)[C@@H](C(=O)*)N(C)C

Legend:
[1] = tested on: all tested cell lines; assay: In vitro cell viability assay, drug-linkers versus ADCs; format: cell-based; settings: AF-Lx quenched with thiourea, AF-Mal with n-acetyl-cysteine
Experimental: (§1) Before starting the assay, the AF-Lx and AF-Mal were quenched by incubation the compounds with 1 mol equiv. thiourea (2 hours, 37° C.) and n-acetyl-cysteine (30 minutes, 0° C.), respectively. The cells were trypsinized and plated in 96-well, flat-bottomed, tissue culture plates at day 0. On day 1, from the above mentioned compounds serial dilution series (9×4-fold dilutions) were made starting from 10 or 1000 nM (depending on type of cells and compounds) and added to the cells (in case of ADCs, concentration of the mAb was used). On day 5, the […] BLUE® reagent was added and incubated for 2 hours at 37° C., and viable cells were measured with a TeCan plate reader (Tecan Group Ltd.) at 560EX/590EM nm. Fluorescence values of the samples were corrected for background of cell culture medium, the results, presented as the percentage of survival, were calculated by dividing the fluorescence values of the treated cells by the values of the untreated control cells. The data were analyzed with Graphpad Prism 5 software.

[2] = tested on: NCI-N87 tumors; assay: In vivo therapy study, NCI-N87 xenografts; set-up: species or system nude mice; settings: single bolus injection 15 mg/kg
Experimental: (§2) Body weight was measured three times per week and MTD was reached when weight loss was >10% compared with the control mice. […] For this purpose, seven groups of 8 or 9 mice with established NCI-N87 or JIMT-1 xenografts in both flanks were used. […] All mice received an i.p. bolus injection. In the study with the NCI-N87 tumors, Group 1 was the control group and received 100 μL of saline solution. […] In the study with the JIMT-1 tumors, Group 1 was the control group and received 100 μL of saline solution. […] Body weight and tumor volume were measured three times per week up to 4 months after end of treatment.

[3] = tested on: SKOV-3; assay: In vitro cell viability assay ([…] BLUE); format: cell-based
Experimental: as §1, with “BLUE® Assay (Promega). Before” for “Before”, “Fluorescence values of the samples were corrected for background of cell culture medium, the results, presented as the percentage of survival, were calculated by dividing the fluorescence values of the treated cells by the values of the untreated control cells.” left out

[4] = tested on: NCI-N87; assay: In vitro cell viability assay ([…] BLUE); format: cell-based; settings: concentration of the mAb for ADCs, day 5 readout
Experimental: as §1, with “BLUE® Assay (Promega). Before” for “Before”, “Fluorescence values of the samples were corrected for background of cell culture medium, the results, presented as the percentage of survival, were calculated by dividing the fluorescence values of the treated cells by the values of the untreated control cells.” left out

[5] = tested on: MDA-MB-231; assay: In vitro cell viability assay ([…] BLUE); format: cell-based
Experimental: as §1, with “BLUE® Assay (Promega). Before” for “Before”, “Fluorescence values of the samples were corrected for background of cell culture medium, the results, presented as the percentage of survival, were calculated by dividing the fluorescence values of the treated cells by the values of the untreated control cells.” left out

[6] = tested on: SK-BR-3; assay: In vitro cell viability assay ([…] BLUE); format: cell-based
Experimental: as §1, with “BLUE® Assay (Promega). Before” for “Before”, “Fluorescence values of the samples were corrected for background of cell culture medium, the results, presented as the percentage of survival, were calculated by dividing the fluorescence values of the treated cells by the values of the untreated control cells.” left out

[7] = tested on: JIMT-1; assay: In vitro cell viability assay ([…] BLUE); format: cell-based
Experimental: as §1, with “BLUE® Assay (Promega). Before” for “Before”, “Fluorescence values of the samples were corrected for background of cell culture medium, the results, presented as the percentage of survival, were calculated by dividing the fluorescence values of the treated cells by the values of the untreated control cells.” left out

[8] = tested on: JIMT-1 tumors; assay: In vivo therapy study, JIMT-1 xenografts; set-up: species or system nude mice; settings: single bolus injection (15 mg/kg; AF conjugates 15 and 30 mg/kg), follow-up to day 125
Experimental: as §2

| Compound | potency of drug-linker lower compared to its corresponding ADC [1] | time at which tumors started regrowth [2] [days] | IC50 [3] [pM] | IC50 [4] [pM] | potency / IC50 in MDA-MB-231, in words ([5]; HER2-negative MDA-MB-231) | IC50 ([5]; MDA-MB-231, HER2-negative) [pM] | IC50 [6] [pM] | IC50 ([7]; JIMT-1, T-DM1-resistant) [pM] | potency / IC50 in JIMT-1 cell line, in words ([7]; T-DM1-resistant JIMT-1) | tumor growth response, in words [8] |
| --- | --- | --- | --- | --- | --- | --- | --- | --- | --- | --- |
| [Pt(en)(AF-(4-(12-amino-3-oxo-7,10-dioxa-2,4-diazadodecyl)piperidine))Cl](Cl) [AF-Lx] | 10^3-10^4 fold | – | – | – | – | – | – | – | – | – |
| ado-trastuzumab emtansine [T-DM1] | – | 20 | 13 | 105 | lower IC50 | 200000 | 21 | 7000 | an order of magnitude higher | minimal growth delay |
| CC[C@H](C)[C@@H]([C@@H](CC(=O)N1CCC[C@H]1[C@H](OC)[C@@H](C)C(=O)N[C@H](Cc1ccccc1)C(=O)NCCOCCOCCNC(=O)CCCCCN1C(=O)C=CC1=O)OC)N(C)C(=O)[C@@H](NC(=O)[C@H](C(C)C)N(C)C)C(C)C [AF-Mal, AF-PEG1-amide-Hex-Mal] (NMe2Val-V[Dil][Dolaproine][dF]-X1) | 10 fold | – | – | – | – | – | – | – | – | – |
